Data on one molecule can be found in patent US20120264825A1, “Amino Acid Perhydrates, Process for Their Preparation and Uses thereof” (priority 2009, published 2012).

Molecules are shown by their SMILES.

How the values of data set [1] were obtained:
The compounds may be kept, for example, in closed vessels in a 4° C. refrigerator.

For data set [2] the following is noted: peak appears above the melting temperature; 2 degree/min under nitrogen flow. The method, then:
TG and DSC studies were performed on Thermobalance, TG50 and differential scanning calorimeter, DSC 822 (Mettler, Toledo) in the range 25-200° C. under nitrogen flow at a heating rate of 2 degree/min.

Take `N[C@@H](CO)C(=O)O.OO` [Example 1, L-Serine Mono Hydrogen Peroxide Solvate C3H7NO3.H2O2]: the “hydrogen peroxide concentration on storage” value in data set [1] (room temperature, several months) is listed as “maintained constant hydrogen peroxide concentration for several months”. Further, the “loss of active oxygen on storage” value in data set [1] (stored at room temperature for at least three weeks) was “no loss of active oxygen”. Further, the “exothermic decomposition peak (DSC)” value in data set [2] is “about 85 °C”.
